Experiments:
[1] = molecular target: T1, SSTR4 (Homo sapiens (Human), UniProt P31391); assay: Inhibition of forskolin stimulated cAMP in CHO-K1 cells overexpressing SSTR4; type: cell-based; settings: for EC50: read-out: SSTR4 Activity pEC50 (converted)
How it was run: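 Read-out is a HTRF LANCE Ultra cAMP competition using Eu-labelled streptavidin and biotin-cAMP, incubated 60 min at room temperature. It followed a 30 min room-temperature exposure of Kreb's Ringer-washed cells to compound plus forskolin. Potency is expressed as pEC50.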

[2] = molecular target: T1, SSTR4; assay: SSTR4 I-125 somatostatin competition binding assay (membranes from CHO-K1 cells overexpressing SSTR4); settings: competition with I-125 labeled somatostatin; for IC50: read-out: SSTR4 Binding pIC50 (converted)
Description: Membranes from CHO-K1 cells overexpressing SSTR4 are purchased from Perkin Elmer (catalog number ES-524-M400UA). Test compounds are suspended in DMSO and then diluted in assay buffer (25 mM HEPES pH 7.4, 10 mM MgCl2, 1 mM CaCl2), 0.5% BSA) plus 0.2 nM I-125 labeled somatostatin (Perkin Elmer catalog number NEX389). […] Then 1 μg of SSTR4 membranes in 50 μL assay buffer are added per well. The Plate is incubated for 60 minutes at room temperature. FilterMat A filters (Perkin Elmer catalog number 1450-421) are pre-soaked in 0.5% PEI (Sigma catalog number P3143). The contents of the assay plate are transferred to filters with a TomTech harvester and washed 5 times with 20 mM HEPES, 100 mM NaCl. The filters are dried in a microwave oven then transferred to sample bag containing a scintillator sheet (Perkin Elmer catalog number 1450-441). The scintillator sheets are melted to filters using a heat block. The filters are then read in a MicroBeta scintillation counter. Binding Ki curves are generated using Activity Base for Screening Data Management and the results are reported as pIC50.

[3] = molecular target: SSTR1 (Homo sapiens (Human), UniProt P30872); assay: SSTR1 I-125 somatostatin competition binding assay for selectivity versus SSTR4 (membranes from CHO-K1 cells overexpressing SSTR1); settings: for SSTR1 Binding pIC50: competition with I-125 labeled somatostatin, CHO-K1 SSTR1 membranes;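 as to all read-outs here: Filter-based radioligand binding, bound label counted by scintillation after 60 min incubation at room temperature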
SSTR1, sequence (P30872 whole entry): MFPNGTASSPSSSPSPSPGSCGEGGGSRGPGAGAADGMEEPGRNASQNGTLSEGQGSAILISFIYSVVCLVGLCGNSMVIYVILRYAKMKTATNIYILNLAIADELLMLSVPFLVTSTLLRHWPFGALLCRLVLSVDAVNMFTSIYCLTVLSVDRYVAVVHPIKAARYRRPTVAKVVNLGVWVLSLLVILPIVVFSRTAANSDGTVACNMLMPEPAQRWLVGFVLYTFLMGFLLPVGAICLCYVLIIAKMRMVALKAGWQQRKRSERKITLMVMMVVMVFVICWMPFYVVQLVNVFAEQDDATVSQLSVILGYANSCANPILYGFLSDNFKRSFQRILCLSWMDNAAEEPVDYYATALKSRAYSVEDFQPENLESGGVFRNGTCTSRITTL
Description: Membranes from CHO-K1 cells overexpressing SSTR1 are purchased from Perkin Elmer (catalog number ES-520-M400UA). […] Then 10 μg of SSTR1 membranes in 50 μL assay buffer are added per well. The plate is incubated for 60 minutes at room temperature. […] The contents of the assay plate are transferred to filters with a TomTech harvester and washed 5 times with 20 mM HEPES, 100 mM NaCl. […] The scintillator sheets are melted to the filters using a heat block. The filters are then read in a MicroBeta scintillation counter. Binding Ki curves are generated using Activity Base for Screening Data Management and the results are reported as pIC50.

T1 sequence (P31391 whole entry): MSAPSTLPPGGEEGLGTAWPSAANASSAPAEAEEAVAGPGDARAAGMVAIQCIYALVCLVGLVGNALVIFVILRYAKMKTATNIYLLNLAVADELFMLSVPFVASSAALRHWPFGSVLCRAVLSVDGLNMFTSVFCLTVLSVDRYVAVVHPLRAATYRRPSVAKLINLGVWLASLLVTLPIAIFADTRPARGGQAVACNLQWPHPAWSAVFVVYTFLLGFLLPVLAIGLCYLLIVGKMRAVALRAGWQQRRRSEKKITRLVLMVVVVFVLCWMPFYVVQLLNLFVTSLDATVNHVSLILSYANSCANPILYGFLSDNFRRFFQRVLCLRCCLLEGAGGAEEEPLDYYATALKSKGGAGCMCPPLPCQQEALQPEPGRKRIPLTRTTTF

SMILES | EC50 [1] | IC50 [2] | IC50 [3] | SSTR4 Activity pEC50 [1] | SSTR4 Binding pIC50 [2] | SSTR1 Binding pIC50 [3]
Cc1ncccc1[C@@H]1CNCC[C@H]1N(C)C(=O)C(C)(C)COc1ncccc1C(F)(F)F (racemic) [Example 172, N,2,2-trimethyl-N-(trans-3-(2-methylpyridin-3-yl)piperidin-4-yl)-3-((3-(trifluoromethyl)pyridin-2-yl)oxy)propanamide] | 0.0126 µM | 2 µM | 39.8 µM |  |  | 
C[C@@H]1CN(C)C[C@H]1NC(=O)C(C)(C)COc1ncccc1C1CC1 (racemic) [Example 181, 3-((3-cyclopropylpyridin-2-yl)oxy)-N-(trans-1,4-dimethylpyrrolidin-3-yl)-2,2-dimethylpropanamide] | 0.0158 µM | 0.398 µM | 3.16 µM |  |  | 
Cc1cccnc1OCC(C)(C)C(=O)N[C@@H]1CN(C)C[C@H]1C (racemic) [Example 182, N-(trans-1,4-dimethylpyrrolidin-3-yl)-2,2-dimethyl-3-((3-methylpyridin-2-yl)oxy)propanamide] | 0.0316 µM | 0.794 µM | 12.6 µM |  |  | 
C[C@@H]1CN(C)CC[C@H]1NC(=O)C(F)(F)COc1ncccc1OC(F)(F)F (racemic) [Example 200, N-(trans-1,3-dimethylpiperidin-4-yl)-2,2-difluoro-3-((3-(trifluoromethoxy)pyridin-2-yl)oxy)propanamide] | 0.0316 µM | 0.126 µM | 39.8 µM |  |  | 
CC(C)[C@@H]1CN(C)C[C@H]1NC(=O)C(C)(C)COc1ncccc1OC(F)(F)F (relative stereo) [Example 16, trans-N-(4-isopropyl-1-methylpyrrolidin-3-yl)-2,2-dimethyl-3-((3-(trifluoromethoxy)pyridin-2-yl)oxy)propanamide] |  |  |  | 7.8 | 7.2 | 5.5
Cc1cccnc1OCC(C)(C)C(=O)N[C@@H]1CCN(C)C[C@H]1C (relative stereo) [Example 17, trans-N-(1,3-dimethylpiperidin-4-yl)-2,2-dimethyl-3-((3-methylpyridin-2-yl)oxy)propanamide] |  |  |  | 7.7 | 6.7 | 4.7
Cc1cccnc1OCC(C)(C)C(=O)N[C@@H]1CN(C)C[C@H]1c1cnn(C)c1 (relative stereo) [Example 18, trans-2,2-dimethyl-N-(1-methyl-4-(1-methyl-1H-pyrazol-4-yl)pyrrolidin-3-yl)-3-((3-methylpyridin-2-yl)oxy)propanamide] |  |  |  | 7.1 | 6.0 | 5.1
CN1C[C@@H](NC(=O)C(C)(C)COc2ncccc2C(F)(F)F)[C@H](c2cnn(C)c2)C1 (relative stereo) [Example 19, trans-2,2-dimethyl-N-(1-methyl-4-(1-methyl-1H-pyrazol-4-yl)pyrrolidin-3-yl)-3-((3-(trifluoromethyl)pyridin-2-yl)oxy)propanamide] |  |  |  | 7.7 | 6.8 | 6.1
CN1C[C@@H](NC(=O)C(C)(C)COc2ncccc2C2CC2)[C@H](c2cnn(C)c2)C1 (relative stereo) [Example 22, trans-3-((3-cyclopropylpyridin-2-yl)oxy)-2,2-dimethyl-N-(1-methyl-4-(1-methyl-1H-pyrazol-4-yl)pyrrolidin-3-yl)propanamide] |  |  |  | 7.9 | 7.0 | 6.0
Cc1cccnc1OCC(C)(C)C(=O)N[C@@H]1CN(C)C[C@H]1c1cn(C)nc1C (relative stereo) [Example 23, trans-N-(4-(1,3-dimethyl-1H-pyrazol-4-yl)-1-methylpyrrolidin-3-yl)-2,2-dimethyl-3-((3-methylpyridin-2-yl)oxy)propanamide] |  |  |  | 8.0 | 6.6 | 5.8
Cc1nn(C)cc1[C@@H]1CN(C)C[C@H]1NC(=O)C(C)(C)COc1ncccc1C1CC1 (relative stereo) [Example 24, trans-3-((3-cyclopropylpyridin-2-yl)oxy)-N-(4-(1,3-dimethyl-1H-pyrazol-4-yl)-1-methylpyrrolidin-3-yl)-2,2-dimethylpropanamide] |  |  |  | 8.3 | 7.0 | 6.4
Cc1nn(C)cc1[C@@H]1CN(C)C[C@H]1NC(=O)C(C)(C)COc1ncccc1C(F)(F)F (relative stereo) [Example 25, trans-N-(4-(1,3-dimethyl-1H-pyrazol-4-yl)-1-methylpyrrolidin-3-yl)-2,2-dimethyl-3-((3-(trifluoromethyl)pyridin-2-yl)oxy)propanamide] |  |  |  | 8.3 | 7.0 | 6.4
Cc1cccnc1OCC(C)(C)C(=O)N[C@@H]1CN(C)C[C@H]1c1cnn(C)c1C (relative stereo) [Example 26, trans-N-(4-(1,5-dimethyl-1H-pyrazol-4-yl)-1-methylpyrrolidin-3-yl)-2,2-dimethyl-3-((3-methylpyridin-2-yl)oxy)propanamide] |  |  |  | 8.6 | 7.3 | 6.1
Cc1c([C@@H]2CN(C)C[C@H]2NC(=O)C(C)(C)COc2ncccc2C2CC2)cnn1C (relative stereo) [Example 27, trans-3-((3-cyclopropylpyridin-2-yl)oxy)-N-(4-(1,5-dimethyl-1H-pyrazol-4-yl)-1-methylpyrrolidin-3-yl)-2,2-dimethylpropanamide] |  |  |  | 8.9 | 7.6 | 6.9
Cc1c([C@@H]2CN(C)C[C@H]2NC(=O)C(C)(C)COc2ncccc2C(F)(F)F)cnn1C (relative stereo) [Example 28, trans-N-(4-(1,5-dimethyl-1H-pyrazol-4-yl)-1-methylpyrrolidin-3-yl)-2,2-dimethyl-3-((3-(trifluoromethyl)pyridin-2-yl)oxy)propanamide] |  |  |  | 8.8 | 7.7 | 6.8
Cc1nn(C)cc1[C@@H]1CN(C)C[C@H]1NC(=O)C(C)(C)COc1ncccc1OC(F)(F)F (relative stereo) [Example 29, trans-N-(4-(1,3-dimethyl-1H-pyrazol-4-yl)-1-methylpyrrolidin-3-yl)-2,2-dimethyl-3-((3-(trifluoromethoxy)pyridin-2-yl)oxy)propanamide] |  |  |  | 8.4 | 7.4 | 6.4
Cc1c([C@@H]2CN(C)C[C@H]2NC(=O)C(C)(C)COc2ncccc2OC(F)(F)F)cnn1C (relative stereo) [Example 30, trans-N-(4-(1,5-dimethyl-1H-pyrazol-4-yl)-1-methylpyrrolidin-3-yl)-2,2-dimethyl-3-((3-(trifluoromethoxy)pyridin-2-yl)oxy)propanamide] |  |  |  | 9.0 | 7.8 | 6.9
C[C@H]1C[C@@H](NC(=O)C(C)(C)COc2ncccc2OC(F)(F)F)CCN1C (relative stereo) [Example 136, cis-N-(1,2-dimethylpiperidin-4-yl)-2,2-dimethyl-3-((3-(trifluoromethoxy)pyridin-2-yl)oxy)propanamide] |  |  |  | 8.1 | 7.1 | 4.8
Cc1ccccc1[C@@H]1CNCC[C@H]1N(C)C(=O)C(C)(C)COc1ncccc1C(F)(F)F (relative stereo) [Example 155, N,2,2-trimethyl-N-(trans-3-(o-tolyl)piperidin-4-yl)-3-((3-(trifluoromethyl)pyridin-2-yl)oxy)propanamide] |  |  |  | 8.0 | 7.2 | 5.4
Cc1ccccc1[C@@H]1CNCC[C@@H]1N(C)C(=O)C(C)(C)COc1ncccc1C(F)(F)F (relative stereo) [Example 156, N,2,2-trimethyl-N-(cis-3-(o-tolyl)piperidin-4-yl)-3-((3-(trifluoromethyl)pyridin-2-yl)oxy)propanamide] |  |  |  | 7.2 | 6.4 | 4.6
Cc1ccccc1[C@@H]1CNCC[C@H]1NC(=O)C(C)(C)COc1ncccc1C(F)(F)F (relative stereo) [Example 157, 2,2-dimethyl-N-(trans-3-(o-tolyl)piperidin-4-yl)-3-((3-(trifluoromethyl)pyridin-2-yl)oxy)propanamide] |  |  |  | 9.9 | 8.8 | 7.0
Cc1ccccc1[C@@H]1CN(C)CC[C@H]1NC(=O)C(C)(C)COc1ncccc1C(F)(F)F (relative stereo) [Example 161, 2,2-dimethyl-N-(trans-1-methyl-3-(o-tolyl)piperidin-4-yl)-3-((3-(trifluoromethyl)pyridin-2-yl)oxy)propanamide] |  |  |  | 9.1 | 7.7 | 6.5
CN1CC[C@H](NC(=O)C(C)(C)COc2ncccc2C(F)(F)F)[C@H](c2ccccc2)C1 (relative stereo) [Example 163, 2,2-dimethyl-N-(cis-1-methyl-3-phenylpiperidin-4-yl)-3-((3-(trifluoromethyl)pyridin-2-yl)oxy)propanamide] |  |  |  | 7.3 | 6.1 | 5.2
C[C@@H]1CN(C)C[C@H]1NC(=O)C(C)(C)COc1ncccc1OC(F)(F)F (relative stereo) [Example 180, N-(trans-1,4-dimethylpyrrolidin-3-yl)-2,2-dimethyl-3-((3-(trifluoromethoxy)pyridin-2-yl)oxy)propanamide] |  |  |  | 7.6 | 6.5 | 5.4
